Laboratory results as given in US11939617B2, “Functionally modified polypeptides and radiobiosynthesis” (Ikaria Inc., priority 2016, dated 2024).

Experiments:
[1] = molecular target: HSA (Homo sapiens, UniProt P02768); assay: chromatographic assay of HSA binding; details: for Kd: chromatographic HSA binding assay (Hage)
Description: To assess albumin binding, any assay designed to measure albumin binding can be used. Chromatographic binding assays are especially useful, such as that described by Hage, D S, et al. J (Chromatogr B Biomed Sci Appl. 2000, 739:39-54). Alternatively or in conjunction, binding affinity to albumin can be determined by using surface plasmon resonance. In one method, a BIAcore 200 device (BIAcore Inc.; Piscataway, NJ) is used in combination with a procedure by Lacy, S E, et al. (MAbs, 2015. 7:605-19) as modified herein. Briefly, human and mouse albumin are captured on a CM5 chip using amine coupling at 5000 resonance units. The candidate polypeptides are injected at various concentrations (e.g., 0, 0.625, 1.25, 5, and 10 μM) at a controlled flow rate (e.g., 20 μl/min). The bound peptides are allowed to dissociate for a period of time (e.g., 5 min) before matrix regeneration using 10 mM glycine, pH 3. The signal from an injection passing over an uncoupled cell is subtracted from that of an immobilized cell to generate sensorgrams of the amount of polypeptide bound as a function of time. BIAcore kinetic evaluation software (version 3.1) can be used to determine KD from the association and dissociation rates using a one-to-one binding model. Alternatively or in conjunction, affinity to albumin can be determined using a direct assay, such as described by Nguyen, A, et al. (Protein Eng Des Sel. 2006, 19:291-7). In this method, albumin is immobilized onto high protein-binding capacity polystyrene 96 well plates at a predetermined concentration, such as 2 mg/ml, for a period of time (e.g., overnight) at 4° C. Non-specific binding sites are blocked with binding buffer, and radio-labelled candidate polypeptides are applied to the plates for a period of time, such as 30 minutes, at 25° C. Unbound candidate polypeptides are washed away, and bound candidate polypeptides detected using a radioactivity plate reader.
The two non-natural amino acids (nnAAs 1 and 2; FIG. 1) were synthesized from the corresponding NHS-esters by standard conjugation chemistry (FIG. 1). […]

[2] = system: amber nonsense codon in GFPUV-149UAG, PylRS mutant/tRNACUA^Pyl; assay: amber suppression in GFP by PylRS mutant in E. coli, fluorescence plate reader; type: cell-based; details: medium with 1 mM nnAA versus control LB medium, best hit from the library
Description: Since many PylRS mutants have broad substrate specificity, we first screened only a small library of 22 previously evolved PylRS mutants for their ability to incorporate 1 and 2 into green fluorescence protein (GFP) in E coli. The screening was based on the suppression of an amber nonsense codon at a permissive site in a GFP-encoding gene. Briefly, a plasmid, pLei-GFPUV-N149UAG, which contains GFPUV-149UAG and a copy of a tRNACUA^Pyl, was co-transformed into E. coli GeneHogs strain with a plasmid containing a variant of PylRS mutant. Protein expression was carried out in control LB medium and in medium supplemented with 1 mM 1 or 2. After induction of GFP expression and cultivation (12 h), cells were collected, washed, and analyzed using a fluorescence plate reader.

[3] = daily subcutaneous injection, 70-100 mg, 1-2 mg/kg; cited from earlier work

Sequence of HSA (P02768 25-609): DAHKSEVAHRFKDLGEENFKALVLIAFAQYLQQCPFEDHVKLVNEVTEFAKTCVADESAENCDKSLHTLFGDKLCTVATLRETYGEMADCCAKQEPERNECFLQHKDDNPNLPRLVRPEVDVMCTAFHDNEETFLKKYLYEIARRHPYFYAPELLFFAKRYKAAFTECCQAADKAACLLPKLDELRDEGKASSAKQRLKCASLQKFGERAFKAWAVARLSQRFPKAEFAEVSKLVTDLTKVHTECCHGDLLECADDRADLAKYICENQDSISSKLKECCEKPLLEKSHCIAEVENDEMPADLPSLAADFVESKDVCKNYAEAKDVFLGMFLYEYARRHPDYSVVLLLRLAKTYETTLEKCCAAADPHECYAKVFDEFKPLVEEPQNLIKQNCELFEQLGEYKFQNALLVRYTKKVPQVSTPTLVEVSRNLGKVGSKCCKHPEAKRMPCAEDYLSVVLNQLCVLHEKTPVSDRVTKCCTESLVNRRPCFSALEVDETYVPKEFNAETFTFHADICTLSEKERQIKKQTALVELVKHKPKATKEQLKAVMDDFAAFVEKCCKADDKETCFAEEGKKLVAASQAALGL

Row | Compound | Kd [1] | albumin binding ([1]; statement in words) | full-length GFPUV production (fluorescence) [2] | time of peak serum concentration after injection [3]
1 | N[C@@H](CCCCNC(=O)CCCc1ccc(I)cc1)C(=O)O [compound 1] | 7 µM |  |  | 
2 | N[C@@H](CCCCNC(=O)CCc1ccc(I)cc1)C(=O)O [nnAA 2, Nε-(3-(4-iodophenyl)propanoyl)lysine] | 204 µM | binds albumin poorly | significantly more full-length GFPUV proteins were produced | 
3 | anakinra: 17 kD therapeutic protein currently prescribed for the treatment of rheumatoid arthritis |  |  |  | ~6 h
